Patent publication US20210299079A1, “MONOMETHYL FUMARATE-CARRIER CONJUGATES AND METHODS OF THEIR USE” (Flagship Pioneering Innovations V, Inc., priority 2018, published 2021)
Structures can show the parent of a compound that is named as a salt.

Assays:
[1] = Stability of conjugates in Simulated Gastric Fluid (SGF); assay type: in vitro ADME; settings: SGF pH 1.6 with pepsin, 37° C., 1 μM compound
Procedure: Assay 1. Stability of conjugates in Simulated Gastric Fluid (SGF). This assay was used to assess the stability of a conjugate in a stomach.
Medium was prepared by dissolving 2 g of sodium chloride in 0.6 L in ultrapure water (MilliQ®, Millipore Sigma, Darmstadt, Germany). The pH was adjusted to 1.6 with 1N hydrochloric acid, and the volume was then adjusted to 1 L with purified water.
60 mg FaSSIF powder (Biorelevant™, London, UK) were dissolved in 500 mL buffer (above). Pepsin was added (0.1 mg/mL) (Millipore Sigma, Darmstadt, Germany), and the solution was stirred. The resulting SGF media were used fresh for each experiment.
(§1) Test compounds were dissolved in DMSO stock to 1 mM. An aliquot of the DMSO stock solution was removed and diluted in the SGF Media in 15 mL falcon tubes to generate a total compound concentration of 1 μM. A 1 mL aliquot was immediately removed and diluted once with 1 volume of acetonitrile for TO timepoint. The mixture was sealed and mixed at 37° C. in an incubator. Aliquots (1 mL) were removed at regular intervals and immediately quenched by the addition of 1 volume of acetonitrile. The resulting samples were analyzed by LC/MS to determine degradation rates in SGF.

[2] = Stability of conjugates in Simulated Intestinal Fluid (SIF); assay type: in vitro ADME; settings: SIF pH 6.7 with pancreatin, 37° C., 1 μM compound
Procedure: Assay 2. Stability of conjugates in Simulated Intestinal Fluid (SIF). This assay was used to assess the stability of a conjugate in a small intestine.
Phosphate buffer was prepared by dissolving 0.42 g of sodium hydroxide pellets and 3.95 g of monobasic sodium phosphate monohydrate and 6.19 g of sodium chloride in ultrapure water (MilliQ®, Millipore Sigma, Darmstadt, Germany). The pH was adjusted to 6.7 using aq. HCl and aq. NaOH, as necessary, and the solution was diluted with ultrapure water to produce 1 L of the pH 6.7 buffer.
112 mg FaSSIF powder (Biorelevant™, London, UK) was dissolved in 50 mL of the pH 6.7 buffer. 2 to 3 mL of the resulting solution were then added to 500 mg pancreatin (Millipore Sigma, Darmstadt, Germany). The resulting mixture was agitated by finger tapping the vessel containing the mixture until milky suspension formed. At this time, the remainder of the 50 mL FaSSiF/pH 6.7 buffer solution was added. The resulting suspension was flipped upside down 10 times to produce SIF, which was used fresh.
as §1, with “SIF media” for “SGF Media”, “produce” for “generate”, “mixture with a tested” for “total”, “agitated” for “mixed”, “rates” for “rates in SGF.”

naïve CD4+ T cells = test: Human Regulatory T Cell Differentiation Assay; assay type: cell-based; settings: 6 days; for Cell viability % DMSO: viability dye; for activity at 3000 µM: IL-2, 3 mM; for activity at 100 µM: IL-2, 100 μM
Procedure: Peripheral blood mononuclear cells (PBMCs) from whole blood donated by health volunteers were separated by Ficoll-Paque gradient centrifugation and naïve CD4^+ T cells were subsequently isolated using magnet beads (EasySep™ Human Naïve CD4^+ T Cell Isolation Kit, Cambridge, Mass.). For regulatory T cell (Treg) differentiation assay, naïve CD4^+ T cells were cultured (1-10×10^4 cells) in CTS OpTmizer medium for 6 days and stimulated with 5 ng/ml TGF-β, 100 U/ml IL-2, and ImmunoCult™ Human […] T Cell Activator; Stemcell #10990) with/without our Compounds. Cell viability was determined using a viability dye (eBioscience Fixable Viability Dye eFluor 780: ThermoFisher 65-0865-14) at 1:500 dilution. The cells were gated for Treg, defined as Live, CD11c^−, CD14^−, CD19^−, CD8^−, CD4^+, CD3^+, CD25^+, FOXP3^+. Percent (%) Tregs were calculated as percentage of CD4^+, CD25^+, FOXP3^+ cells over total CD4^+ T cells. Statistical analysis was performed with GraphPad Prism Software Using One-Way ANOVA.

[3] = Homo sapiens, 144 h, TGF-β, read-out: Treg induction % DMSO

CCC(=O)O[C@H]1[C@H](OC(=O)/C=C/C(=O)OC)OC[C@@H](OC(=O)CC)[C@H]1OC(=O)CC [Compound 6, Methyl ((2S,3R,4R,5R)-3,4,5-tris(propionyloxy)tetrahydro-2H-pyran-2-yl) fumarate]
Assay 1 (SGF) (% Remaining @ 1 hour) [1]: C (C: >75% of the tested compound remaining)
Assay 2 (SIF) (% @ Remaining 4 hours) [2]: A (A: <25% of the tested compound remaining)

CCC(=O)O[C@H]1[C@H](OC(=O)CC)[C@@H](OC(=O)/C=C/C(=O)OC)O[C@@H](C)[C@H]1OC(=O)CC [Compound 21, Methyl ((2R,3S,4R,5R,6S)-6-methyl-3,4,5-tris(propionyloxy)tetrahydro-2H-pyran-2-yl) fumarate]
Assay 1 (SGF) (% Remaining @ 1 hour) [1]: C (C: >75% of the tested compound remaining)
Assay 2 (SIF) (% @ Remaining 4 hours) [2]: B (B: 25-75% of the tested compound remaining)

CCC(=O)O[C@@H]1O[C@H](COC(=O)/C=C/C(=O)OC)[C@@H](OC(=O)CC)[C@H](OC(=O)CC)[C@H]1OC(=O)CC [Compound 22, Methyl (((2R,3R,4S,5R,6S)-3,4,5,6-tetrakis(propionyloxy)tetrahydro-2H-pyran-2-yl)methyl) fumarate]
Assay 1 (SGF) (% Remaining @ 1 hour) [1]: C (C: >75% of the tested compound remaining)
Assay 2 (SIF) (% @ Remaining 4 hours) [2]: A (A: <25% of the tested compound remaining)

CCC(=O)O[C@@H]1[C@@H](OC(=O)CC)[C@@H](OC(=O)/C=C/C(=O)OC)O[C@H](C(=O)O)[C@H]1OC(=O)CC [Compound 26, (2S,3S,4S,5R,6R)-6-(((E)-4-methoxy-4-oxobut-2-enoyl)oxy)-3,4,5-tris(propionyloxy)tetrahydro-2H-pyran-2-carboxylic Acid]
Assay 1 (SGF) (% Remaining @ 1 hour) [1]: C (C: >75% of the tested compound remaining)
Assay 2 (SIF) (% @ Remaining 4 hours) [2]: A (A: <25% of the tested compound remaining)

CCCC(=O)O[C@H]1[C@@H](OC(=O)CCC)[C@@H](CO)O[C@@H](OC(=O)/C=C/C(=O)OC)[C@@H]1OC(=O)CCC [Compound 44, 1-methyl (2S,3R,4S,5S,6R)-3,4,5-tris(butanoyloxy)-6-(hydroxymethyl)oxan-2-yl (2E)-but-2-enedioate]
Assay 1 (SGF) (% Remaining @ 1 hour) [1]: C (C: >75% of the tested compound remaining)
Assay 2 (SIF) (% @ Remaining 4 hours) [2]: A (A: <25% of the tested compound remaining)

CCCC(=O)O[C@H]1[C@@H](OC(=O)CCC)[C@@H](CO)O[C@H](OC(=O)/C=C/C(=O)OC)[C@@H]1OC(=O)CCC [Compound 45, 1-methyl (2R,3R,4S,5S,6R)-3,4,5-tris(butanoyloxy)-6-(hydroxymethyl)oxan-2-yl (2E)-but-2-enedioate]
Assay 1 (SGF) (% Remaining @ 1 hour) [1]: C (C: >75% of the tested compound remaining)
Assay 2 (SIF) (% @ Remaining 4 hours) [2]: A (A: <25% of the tested compound remaining)

CC(=O)O [acetic acid]
Cell viability % DMSO (naïve CD4+ T cells; 1 mM): = (90% > <110%: =)
Cell viability % DMSO (naïve CD4+ T cells; 3 mM): = (90% > <110%: =)
activity at 1000 µM (naïve CD4+ T cells; Homo sapiens, 144 h, TGF-β, IL-2, 1 mM, read-out: Treg induction % DMSO): 110 to 130%
activity at 3000 µM (naïve CD4+ T cells; [3]): > 130%

CCCC(=O)O [butyric Acid]
Cell viability % DMSO (naïve CD4+ T cells; 3 mM): − (<90%: −)
activity at 3000 µM (naïve CD4+ T cells; [3]): < 90%

CC[C@H]1[C@@H](O)[C@@H]2[C@H](CC[C@]3(C)[C@@H]([C@H](C)CCC(=O)O)CC[C@@H]23)[C@@]2(C)CC[C@@H](O)C[C@@H]12 [obeticholic acid, reference compound]
Cell viability % DMSO (naïve CD4+ T cells; 100 μM): = (90% > <110%: =)
activity at 100 µM (naïve CD4+ T cells; [3]): 110 to 130%

CCC(=O)O [propionic acid]
Cell viability % DMSO (naïve CD4+ T cells; 3 mM): = (90% > <110%: =)
activity at 3000 µM (naïve CD4+ T cells; [3]): > 130%

CN(CCOc1ccc(CC2SC(=O)NC2=O)cc1)c1ccccn1 (stereo not drawn) [rosiglitazone, reference compound]
Cell viability % DMSO (naïve CD4+ T cells; 10 μM): = (90% > <110%: =)
Cell viability % DMSO (naïve CD4+ T cells; 100 μM): − (<90%: −)
activity at 10 µM (naïve CD4+ T cells; Homo sapiens, 144 h, TGF-β, IL-2, 10 μM, read-out: Treg induction % DMSO): 90 to 110%
activity at 100 µM (naïve CD4+ T cells; [3]): 90 to 110%

CC(O)CC(=O)[O-].[Na+] (stereo not drawn) [sodium β-hydroxybutyrate]
Cell viability % DMSO (naïve CD4+ T cells; 2 mM): = (90% > <110%: =)
Cell viability % DMSO (naïve CD4+ T cells; 20 mM): − (<90%: −)
activity at 2000 µM (naïve CD4+ T cells; Homo sapiens, 144 h, TGF-β, IL-2, 2 mM, read-out: Treg induction % DMSO): 110 to 130%
activity at 20000 µM (naïve CD4+ T cells; Homo sapiens, 144 h, TGF-β, IL-2, 20 mM, read-out: Treg induction % DMSO): 90 to 110%
